Literature values as cited in patent publication US20160303203A1, “COMPOSITIONS AND METHODS FOR THE TREATMENT OF WOUNDS” (priority 2013, published 2016).

System: diabetic ulcers
Details: patients with diabetic ulcers treated with phenytoin; control group 45 days

In the case of `O=C1NC(=O)C(c2ccccc2)(c2ccccc2)N1` [phenytoin, 5.5-diphenyl-2,4-imidazolidinedione], the mean healing time is given as 21 days.
